Experimental data published in the supplement of paper PMC10883282.
± gives the standard deviation of the averaged measurements.

Test system: SYO-1
Assay: relative viability vs DMSO control (72 h) (fraction); higher = more viable cells
Summary of the method: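 After seeding at densities set for 80–90% confluence in 384-well plates, sarcoma cell lines waited 24 h before 2.5 µl of serially diluted compound was added. Source plates held 10 mM down to 0.0002 mM. Plates were incubated 72 h at 37 °C with 5% CO2, with 0.1% DMSO vehicle and a 5 µM positive control, and relative viability was taken from ATPLite as percent growth averaged over up to triplicate wells, with 1 set as full and 0 as none.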

Row | Structure (SMILES) | relative viability (0.00017 µM) | relative viability (0.00051 µM) | relative viability (0.00152 µM) | relative viability (0.00457 µM) | relative viability (0.01372 µM) | relative viability (0.04115 µM) | relative viability (0.1235 µM) | relative viability (0.3704 µM) | relative viability (1.111 µM) | relative viability (3.333 µM) | relative viability (10 µM)
1 | CO[C@H]1C[C@@H]2CC[C@@H](C)[C@@](O)(O2)C(=O)C(=O)N2CCCC[C@H]2C(=O)O[C@H]([C@H](C)C[C@@H]2CC[C@@H](OP(C)(C)=O)[C@H](OC)C2)CC(=O)[C@H](C)/C=C(\C)[C@@H](O)[C@@H](OC)C(=O)[C@H](C)C[C@H](C)/C=C/C=C/C=C/1C [Ridaforolimus] | 0.941 ± 0.022 | 0.924 ± 0.024 | 0.915 ± 0.026 | 0.89 ± 0.037 | 0.868 ± 0.035 | 0.832 ± 0.041 | 0.79 ± 0.042 | 0.775 ± 0.038 | 0.748 ± 0.056 | 0.707 ± 0.058 | 0.672 ± 0.062
2 | CCc1cc2c(cc1N1CCC(N3CCOCC3)CC1)C(C)(C)c1[nH]c3cc(C#N)ccc3c1C2=O [Alectinib] | 0.979 ± 0.024 | 0.983 ± 0.032 | 0.982 ± 0.058 | 0.975 ± 0.059 | 0.99 ± 0.072 | 0.98 ± 0.031 | 0.972 ± 0.081 | 0.986 ± 0.051 | 1 ± 0.05 | 0.984 ± 0.045 | 1.03 ± 0.034
3 | C[C@@H](c1ccc2nccn2c1)n1nnc2ncc(-c3cnn(C)c3)nc21 [Volitinib] | 0.96 ± 0.038 | 0.999 ± 0.065 | 1 ± 0.025 | 0.979 ± 0.03 | 0.985 ± 0.024 | 0.992 ± 0.032 | 1.01 ± 0.087 | 0.98 ± 0.051 | 0.996 ± 0.058 | 0.977 ± 0.085 | 1.03 ± 0.047
4 | CC1(C)CNc2cc(NC(=O)c3cccnc3NCc3ccncc3)ccc21 [Motesanib] | 0.962 ± 0.012 | 0.979 ± 0.043 | 0.996 ± 0.05 | 0.974 ± 0.043 | 0.973 ± 0.025 | 0.914 ± 0.036 | 0.866 ± 0.029 | 0.777 ± 0.054 | 0.724 ± 0.021 | 0.648 ± 0.016 | 0.494 ± 0.019
5 | CN1CCN(c2ccc3nc(-c4c(N)c5c(F)cccc5[nH]c4=O)[nH]c3c2)CC1 [Dovitinib] | 1.04 ± 0.049 | 1.038 ± 0.0075 | 0.992 ± 0.037 | 0.998 ± 0.03 | 0.974 ± 0.014 | 0.927 ± 0.035 | 0.833 ± 0.0092 | 0.556 ± 0.012 | 0.388 ± 0.025 | 0.17 ± 0.023 | -0.0198 ± 0.0062
6 | CNC(=O)c1cc(Oc2ccc(NC(=O)Nc3ccc(Cl)c(C(F)(F)F)c3)c(F)c2)ccn1 [Regorafenib] | 1.02 ± 0.039 | 1.022 ± 0.0037 | 1.04 ± 0.05 | 1.01 ± 0.035 | 1.03 ± 0.02 | 0.999 ± 0.05 | 0.954 ± 0.065 | 0.755 ± 0.038 | 0.572 ± 0.022 | 0.476 ± 0.016 | 0.217 ± 0.016
7 | Cc1nc(NC(=O)N2CCC[C@H]2C(N)=O)sc1-c1ccnc(C(C)(C)C(F)(F)F)c1 [Alpelisib] | 0.975 ± 0.071 | 0.944 ± 0.068 | 0.93 ± 0.049 | 0.919 ± 0.031 | 0.85 ± 0.099 | 0.805 ± 0.095 | 0.735 ± 0.1 | 0.68 ± 0.11 | 0.633 ± 0.063 | 0.6 ± 0.019 | 0.5521 ± 0.0025
8 | CCN1CCN(Cc2ccc(Nc3ncc(F)c(-c4cc(F)c5nc(C)n(C(C)C)c5c4)n3)nc2)CC1 [Abemaciclib] | 0.953 ± 0.047 | 0.936 ± 0.043 | 0.925 ± 0.029 | 0.905 ± 0.051 | 0.849 ± 0.059 | 0.775 ± 0.064 | 0.657 ± 0.051 | 0.519 ± 0.039 | 0.461 ± 0.015 | 0.353 ± 0.059 | 0.0228 ± 0.055
9 | CC[C@H](Nc1ncnc2[nH]cnc12)c1nc2cccc(F)c2c(=O)n1-c1ccccc1 [Idelalisib] | 1.01 ± 0.062 | 0.979 ± 0.029 | 1 ± 0.054 | 0.968 ± 0.068 | 0.972 ± 0.069 | 0.942 ± 0.028 | 0.941 ± 0.032 | 0.931 ± 0.068 | 0.911 ± 0.045 | 0.866 ± 0.067 | 0.799 ± 0.079
10 | C=CC(=O)N1CCC[C@@H](n2nc(-c3ccc(Oc4ccccc4)cc3)c3c(N)ncnc32)C1 [Ibrutinib] | 0.992 ± 0.034 | 0.959 ± 0.047 | 0.923 ± 0.036 | 0.933 ± 0.042 | 0.923 ± 0.046 | 0.892 ± 0.045 | 0.868 ± 0.041 | 0.861 ± 0.026 | 0.759 ± 0.055 | 0.557 ± 0.027 | 0.39 ± 0.02
